This passage reports IC50 results from patent US20120328569A1, “INHIBITORS OF HEPATITIS C VIRUS NS5B POLYMERASE” (priority 2010, published 2012).

This assay relates to HCV genotype 1b replicon. Description: HCV replicon assay, cell ELISA with antibody to replicon-encoded NS3/4A (genotype 1b replicon). The assay is classed as cell-based, hepatitis C virus. The following applies: Hepatitis C virus, 96 h, read-out: Replicon 1b IC50 (nM), HCV genotype 1b replicon cells, 96 hours incubation, NS3/4A ELISA readout. An outline of the steps: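 An ELISA on lysed cells, using an antibody against NS3/4A protease, served as the proxy for replicon RNA. Cells had first been exposed for 96 h to serially diluted compound in G418-free conditions. Percent of DMSO control was fitted with a four-parameter function to give IC50.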
For orientation: Replicon systems follow genome replication, usually without infectious particles.

For `CNC(=O)c1c(-c2ccc(F)cc2)oc2cc(N(C)S(C)(=O)=O)c(-c3ccc(OC)c(-c4nc5cc(Cl)ccc5o4)c3)cc12` [Example 187], the IC50 stood at 2.6 nM.

For `CNC(=O)c1c(-c2ccc(F)cc2)oc2cc(N(C)S(C)(=O)=O)c(-c3ccc(OC)c(-c4nc5ccc(Cl)cc5o4)c3)cc12` [Example 188], the IC50 amounted to 5.1 nM.

Consider `CNC(=O)c1c(-c2ccc(F)cc2)oc2cc(N(C)S(C)(=O)=O)c(-c3ccc(OC)c(-c4nc5cccc(Cl)c5o4)c3)cc12` [Example 189], for which the IC50 is 1.9 nM.

Turning to `CNC(=O)c1c(-c2ccc(F)cc2)oc2cc(N(C)S(C)(=O)=O)c(-c3ccc(OC)c(-c4nc5c(C)cccc5o4)c3)cc12` [Example 190], the IC50 was 2.2 nM.

For the compound `CNC(=O)c1c(-c2ccc(F)cc2)oc2cc(N(C)S(C)(=O)=O)c(-c3ccc(OC)c(-c4nc5ccc(C)cc5o4)c3)cc12` [Example 191], the IC50 came out at 4.1 nM.

In the case of `CNC(=O)c1c(-c2ccc(F)cc2)oc2cc(N(C)S(C)(=O)=O)c(-c3ccc(OC)c(-c4nc5cccc(C)c5o4)c3)cc12` [Example 192], the IC50 stood at 1.9 nM.

As to `CNC(=O)c1c(-c2ccc(F)cc2)oc2cc(N(C)S(C)(=O)=O)c(-c3ccc(OC(C)C)c(-c4nc5ccccc5o4)c3)cc12` [Example 193], the IC50 amounted to 11.6 nM.

For `CNC(=O)c1c(-c2ccc(F)cc2)oc2cc(N(C)S(C)(=O)=O)c(-c3cc(F)c(F)c(-c4nc5ccccc5o4)c3)cc12` [Example 194], the IC50 stood at 4.2 nM.

On to `CNC(=O)c1c(-c2ccc(F)cc2)oc2cc(N(C)S(C)(=O)=O)c(-c3cc(F)cc(-c4nc5ncccc5o4)c3)cc12` [Example 198], for which the IC50 was found to be 1.4 nM.

Consider `CNC(=O)c1c(-c2ccc(F)cc2)oc2cc(N(C)S(C)(=O)=O)c(-c3cc(F)cc(-c4nc5ncc(Cl)cc5o4)c3)cc12` [Example 199], for which the IC50 turned out to be 2.9 nM.

As for `CNC(=O)c1c(-c2ccc(F)cc2)oc2cc(N(C)S(C)(=O)=O)c(-c3ccc(F)c(-c4nc5ncccc5o4)c3)cc12` [Example 200], the IC50 was 1.6 nM.

Regarding `CNC(=O)c1c(-c2ccc(F)cc2)oc2cc(N(C)S(C)(=O)=O)c(-c3cccc(-c4nc5ncc(F)cc5o4)c3)cc12` [Example 201], the IC50 amounted to 1.7 nM.

As to `CNC(=O)c1c(-c2ccc(F)cc2)oc2cc(N(C)S(C)(=O)=O)c(-c3cccc(-c4nc5ncc(Cl)cc5o4)c3)cc12` [Example 202], the IC50 amounted to 1 nM.

As to `CNC(=O)c1c(-c2ccc(F)cc2)oc2cc(N(C)S(C)(=O)=O)c(-c3cc(Cl)cc(-c4nc5ncccc5o4)c3)cc12` [Example 203], the IC50 stood at 2.4 nM.

Take `CNC(=O)c1c(-c2ccc(F)cc2)oc2cc(N(C)S(C)(=O)=O)c(-c3cc(-c4nc5ncccc5o4)ccc3Cl)cc12` [Example 204]: the IC50 came to 4.5 nM.

As to `CNC(=O)c1c(-c2ccc(F)cc2)oc2cc(N(C)S(C)(=O)=O)c(-c3cccc(-c4nc5ncccc5o4)c3OC)cc12` [Example 205], the IC50 stood at 11.9 nM.

On to `CNC(=O)c1c(-c2ccc(F)cc2)oc2cc(N(C)S(C)(=O)=O)c(-c3ccc(OC(F)(F)F)c(-c4nc5ncccc5o4)c3)cc12` [Example 206], for which the IC50 was found to be 2.1 nM.

As for `CNC(=O)c1c(-c2ccc(F)cc2)oc2cc(N(C)S(C)(=O)=O)c(-c3cc(-c4nc5ncccc5o4)c(OC)cc3F)cc12` [Example 207], the IC50 was 2.4 nM.

Consider `CNC(=O)c1c(-c2ccc(F)cc2)oc2cc(N(C)S(C)(=O)=O)c(-c3ccc(C)c(-c4nc5ncccc5o4)c3)cc12` [Example 208], for which the IC50 was found to be 1.8 nM.

Consider `CNC(=O)c1c(-c2ccc(F)cc2)oc2cc(N(C)S(C)(=O)=O)c(-c3cc(C#N)cc(-c4nc5ncccc5o4)c3)cc12` [Example 209], for which the IC50 turned out to be 5.5 nM.

For the compound `CNC(=O)c1c(-c2ccc(F)cc2)oc2cc(N(C)S(C)(=O)=O)c(-c3cc(C)cc(-c4nc5ncccc5o4)c3)cc12` [Example 210], the IC50 is 1.9 nM.

Take `CNC(=O)c1c(-c2ccc(F)cc2)oc2cc(N(C)S(C)(=O)=O)c(-c3cccc(-c4nc5cnccc5o4)c3)cc12` [Example 211]: the IC50 was found to be 3.3 nM.
